Values of other authors, collected in patent US20050147629A1, “Pharmaceutical formulation comprising non-peptide renin inhibitor and surfactant” (priority 2002, published 2005).

Conditions: readily soluble = at least 1 g per 100 ml, poorly soluble = less than 1 g per 100 ml (b7)

- solubility in water: very readily soluble in water
SMILES: COCCCOc1cc(C[C@@H](C[C@H](N)[C@@H](O)C[C@H](C(=O)NCC(C)(C)C(N)=O)C(C)C)C(C)C)ccc1OC [formula Ia]
